Literature values in paper PMC4905688 (Biomaterials, 2016).

Tested on: ischemic limbs

Substance: VEGF
- Effect of local delivery on ischemia / vessels: modest reversal of ischemia or the development of leaky blood vessels
